From ChEMBL document CHEMBL1139950, “Derivatives of oxoisoaporphine alkaloids: a novel class of selective acetylcholinesterase inhibitors” (Bioorg Med Chem Lett, 2007) come the findings set out here.

For one assay, the target named is Acetylcholinesterase (Electrophorus electricus, UniProt O42275). Nature of the assay: Inhibition of electric eel AChE.
For another assay, the target named is Butyrylcholinesterase (Equus caballus, UniProt Q9N1N9). Nature of the assay: Inhibition of equine serum BuChE.
A short description of assay [1]: Selectivity for electric eel AChE over equine serum BuChE.

The structures appear in SMILES notation.

Acetylcholinesterase, sequence (O42275 whole entry): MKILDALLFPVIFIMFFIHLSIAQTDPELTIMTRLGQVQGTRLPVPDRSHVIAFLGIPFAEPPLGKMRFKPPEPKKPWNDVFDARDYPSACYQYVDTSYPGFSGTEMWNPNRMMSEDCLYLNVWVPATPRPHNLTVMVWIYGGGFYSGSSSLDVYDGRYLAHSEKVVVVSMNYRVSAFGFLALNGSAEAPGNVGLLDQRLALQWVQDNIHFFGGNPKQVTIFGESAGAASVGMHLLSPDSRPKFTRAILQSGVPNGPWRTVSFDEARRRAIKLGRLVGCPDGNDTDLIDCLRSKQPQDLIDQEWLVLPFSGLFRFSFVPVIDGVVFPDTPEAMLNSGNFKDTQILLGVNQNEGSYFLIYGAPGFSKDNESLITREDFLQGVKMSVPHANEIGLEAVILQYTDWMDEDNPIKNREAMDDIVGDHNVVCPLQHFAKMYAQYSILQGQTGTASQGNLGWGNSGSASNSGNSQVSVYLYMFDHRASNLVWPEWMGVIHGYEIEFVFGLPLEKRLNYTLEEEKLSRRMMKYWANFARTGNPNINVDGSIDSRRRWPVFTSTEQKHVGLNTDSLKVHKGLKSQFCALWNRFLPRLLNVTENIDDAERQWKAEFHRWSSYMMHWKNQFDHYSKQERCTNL
Butyrylcholinesterase, sequence (Q9N1N9 whole entry): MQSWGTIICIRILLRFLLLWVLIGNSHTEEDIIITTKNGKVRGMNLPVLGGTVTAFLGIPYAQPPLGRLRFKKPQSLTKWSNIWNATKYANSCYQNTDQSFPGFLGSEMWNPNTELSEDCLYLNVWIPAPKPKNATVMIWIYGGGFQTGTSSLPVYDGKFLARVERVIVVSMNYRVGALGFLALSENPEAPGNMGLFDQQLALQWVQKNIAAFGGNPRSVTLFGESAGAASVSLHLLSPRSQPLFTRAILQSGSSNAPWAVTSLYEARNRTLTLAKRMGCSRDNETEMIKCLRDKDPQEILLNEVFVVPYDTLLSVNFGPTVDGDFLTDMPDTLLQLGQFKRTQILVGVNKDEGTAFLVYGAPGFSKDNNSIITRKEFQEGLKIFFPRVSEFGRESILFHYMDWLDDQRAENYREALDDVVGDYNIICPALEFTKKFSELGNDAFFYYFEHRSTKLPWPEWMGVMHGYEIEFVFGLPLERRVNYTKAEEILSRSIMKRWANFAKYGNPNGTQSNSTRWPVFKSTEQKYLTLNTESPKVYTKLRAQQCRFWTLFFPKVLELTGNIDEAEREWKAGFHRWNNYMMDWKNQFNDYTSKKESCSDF

For the compound `O=C(CCN1CCCC1)Nc1ccc2c(c1)C(=O)c1cccc3ccnc-2c13`, the concentration for half-maximal inhibition (IC50) – broadly, the concentration that gives 50% inhibition – came out at 0.00247 µM on Acetylcholinesterase and 2.41 µM at Butyrylcholinesterase. Further, the Ratio IC50 in assay [1] came to 980.
As to `CN(C)CCNCCC(=O)Nc1ccc2c(c1)C(=O)c1cccc3ccnc-2c13`, the results for the half-maximal inhibitory concentration (IC50) at Acetylcholinesterase and at Butyrylcholinesterase were 0.12 µM and 5.37 µM, respectively. The Ratio IC50 in assay [1] amounted to 45.
In the same order, the values of `CN(C)CC(=O)Nc1ccc2c(c1)C(=O)c1cccc3ccnc-2c13` are 0.0965 µM, 4.37 µM and 45.
Take `C[N+](C)(C)CC(=O)Nc1ccc2c(c1)C(=O)c1cccc3ccnc-2c13`: the IC50 against Acetylcholinesterase was determined as 0.0149 µM; against Butyrylcholinesterase, 1.31 µM. The Ratio IC50 in assay [1] was 88.
`C[N+](C)(C)CCC(=O)Nc1ccc2c(c1)C(=O)c1cccc3ccnc-2c13`: the values for the IC50 on Acetylcholinesterase and on Butyrylcholinesterase were 0.00481 µM and 2.82 µM, respectively. In addition, the Ratio IC50 in assay [1] was determined as 590.
Take `CN(C)CCCC(=O)Nc1ccc2c(c1)C(=O)c1cccc3ccnc-2c13`: the IC50 came to 0.0305 µM at Acetylcholinesterase and 4.4 µM against Butyrylcholinesterase. Also, in assay [1], the Ratio IC50 was determined as 144.
The matching figures for `C[N+](C)(C)CCCC(=O)Nc1ccc2c(c1)C(=O)c1cccc3ccnc-2c13`: 0.00479 µM, 2.37 µM and 490.
The matching figures for `C[N+]1(CCCC(=O)Nc2ccc3c(c2)C(=O)c2cccc4ccnc-3c24)CCCC1`: 0.00251 µM, 3.23 µM and 1290.
Turning to `CN(C)CCC(=O)Nc1ccc2c(c1)C(=O)c1cccc3ccnc-2c13`, the IC50 against Acetylcholinesterase was 0.0339 µM; at Butyrylcholinesterase, 1.95 µM. Moreover, the Ratio IC50 in assay [1] was determined as 58.
`O=C(CN1CCCC1)Nc1ccc2c(c1)C(=O)c1cccc3ccnc-2c13`: the concentration for half-maximal inhibition (IC50) against Acetylcholinesterase was determined as 0.00618 µM; against Butyrylcholinesterase, 3.49 µM. In assay [1], the Ratio IC50 is 560.
In the same order, the values of `C[N+]1(CC(=O)Nc2ccc3c(c2)C(=O)c2cccc4ccnc-3c24)CCCC1` are 0.00108 µM, 1.69 µM and 1560.
The matching figures for `CC[N+](C)(CC)CCCC(=O)Nc1ccc2c(c1)C(=O)c1cccc3ccnc-2c13`: 0.00262 µM, 5.19 µM and 1980.
Consider `C[N+]1(CCC(=O)Nc2ccc3c(c2)C(=O)c2cccc4ccnc-3c24)CCCC1`, for which the IC50 at Acetylcholinesterase is 0.00106 µM; against Butyrylcholinesterase it was 1.96 µM. Besides, in assay [1], the Ratio IC50 came to 1850.
As for `O=C(CCNCCO)Nc1ccc2c(c1)C(=O)c1cccc3ccnc-2c13`, the IC50 against Acetylcholinesterase was 0.0551 µM; against Butyrylcholinesterase it was 5.34 µM. In addition, in assay [1], the Ratio IC50 worked out at 97.
`O=C(CCCN1CCCC1)Nc1ccc2c(c1)C(=O)c1cccc3ccnc-2c13`: the IC50 at Acetylcholinesterase was determined as 0.0121 µM; at Butyrylcholinesterase, 3.61 µM. The Ratio IC50 in assay [1] was 300.
On to `Nc1ccc2c(c1)C(=O)c1cccc3ccnc-2c13`, for which the values for the IC50 against Acetylcholinesterase and at Butyrylcholinesterase were 26.9 µM and 100 µM, respectively.
With `CCN(CC)CCC(=O)Nc1ccc2c(c1)C(=O)c1cccc3ccnc-2c13`, the IC50 against Acetylcholinesterase was found to be 0.0116 µM; against Butyrylcholinesterase it was 6.06 µM. Also, the Ratio IC50 in assay [1] is 523.
